The results in this text go back to patent US20140031283A1, “ANTICANCER FUSION PROTEIN” (ADAMED SP. Z O.O., priority 2011, published 2014).

In one test the test system is A549. The experiment in a line: MTT cytotoxicity test, A549 (human lung cancer). The format is cell-based. As to conditions: continuous incubation over 72 h, test MTT. From the text:
MTT assay is a colorimetric assay used to measure proliferation, viability and cytotoxicity of cells. It consists in decomposition of a yellow tetrazolium salt MTT (4,5-dimethyl-2-thiazolyl)-2,5-diphenyltetrazolium bromide) to the water-insoluble purple dye formazan by mitochondrial enzyme succinate-tetrazolium reductase 1. MTT reduction occurs only in living cells. Data analysis consists in determining IC50 concentration of the protein (in ng/ml), at which the 50% reduction in the number of cells occurs in the population treated compared to control cells. Results were analyzed using GraphPad Prism 5.0 software. The test was performed according to the literature descriptions (Cells, J E, (1998). Cell Biology, a Laboratory Handbook, second edition, Academic Press, San Diego; Yang, Y., Koh, L W, Tsai, J H., (2004); Involvement of viral and chemical factors with oral cancer in Taiwan, Jpn J Clin Oncol, 34 (4), 176-183). Cell culture medium was diluted to a defined density (10^4-10^5 cells per 100 μl). Then 100 μl of appropriately diluted cell suspension was applied to a 96-well plate in triplicates. Thus prepared cells were incubated for 24 h at 37° C. in 5% or 10% CO2, depending on the medium used, and then to the cells (in 100 μl of medium) further 100 μl of the medium containing various concentrations of tested proteins were added. In the case of combination hTRAIL114-281 and p21WAF effector protein, 100 μl of the medium containing mixture of hTRAIL114-281 and p21WAF effector protein in molar ratio 1:1 was added. After incubation of the cells with tested proteins over the period of next 72 hours, which is equivalent to 3-4 times of cell division, the medium with the test protein was added with […] of MTT working solution [5 mg/ml], and incubation was continued for 3 h at 37° C. in 5% CO2. Then the medium with MTT solution was removed, and formazan crystals were dissolved by adding 100 μl of DMSO. After stirring, the absorbance was measured at 570 nm (reference filter 690 nm). […]
In general terms: Formazan colour is commonly taken as a measure of viable cells.

Test [1] concerns human lung cancer NCI-H460. The experiment in a line: NCI-H460 lung cancer xenograft in Crl:SHO-PrkdcscidHrhr mice. The format is in vivo. Particulars: 30 mg/kg i.v. six times every second day, 28th day. Here is the method: Antitumor activity of protein preparations was tested in a mouse model of human colon cancer HCT116, human colon cancer Colo205, human colon cancer model SW620, human liver cancer model HepG2, and human lung cancer models NCI-H460 and NCI-H460-Luc2.
The HCT116 (in mice Crl:CD1-Foxn1^nu 1), Colo205, NCI-H460, NCI-H460-Luc2 cells were maintained in RPMI 1640 medium (Hyclone, Logan, Utah, USA) mixed in the ratio of 1:1 with Opti-MEM (Invitrogen, Cat.22600-134) supplemented with 10% fetal calf serum and 2 mM glutamine. On the day of mice grafting, the cells were detached from the support by washing the cells with trypsin (Invitrogen), then the cells were centrifuged at 1300 rpm, 4° C., 8 min., suspended in HBSS buffer (Hanks medium), counted and diluted to the concentration of 25×10^6 cells/ml.
Examination of antitumor activity of proteins of the invention was conducted on 7-9 week-old CD-nude (Crl:CD1-Foxn1^nu 1) or 4-6 week-old Crl:SHO-Prkdc^scidHr^hr mice obtained from Charles River Germany. Mice were kept under specific pathogen-free conditions with free access to food and demineralised water (ad libitum). All experiments on animals were carried in accordance with the guidelines: “Interdisciplinary Principles and Guidelines for the Use of Animals in Research. […]

Consider “rhTRAIL114-281: recombinant human soluble TRAIL, amino acids 114-281 of hTRAIL, used as the comparative reference”, for which, in the test with A549, the “A549 IC50” value was >10 µg/mL. Besides, the “tumor growth inhibition (TGI) relative to the control” value in test [1] was found to be 17.5%.
